Data taken from publication PMC5863483, “Low HLA binding of diabetes-associated CD8+ T-cell epitopes is increased by post translational modifications” (BMC Immunology, 2018).
*1 amine or outer side, *2 acyl side, *3 side chain or, on linkers, in order; H or OH if unused. Where a SMILES comes first, the peptide text is derived from it. Where no end group is shown, it is not given here. [ ]: non-standard residue; d: D form. γGlu = O=C(O)[C@H](CCC(=O)[*:2])N[*:1]; Cya = N[C@@H](CS(=O)(=O)O)C(=O)O

Target: HLA-A*02:01 (Homo sapiens, UniProt P04439, D140Y/D185E/D98H/E176V/E277Q/G131W/G231S/I119V/I121R/I166T/I218V/L300P/L318F/N151K/N90K/P208A/P217A/Q86G/Q94H/R138H/R169H/T345S)
Assay: HLA-peptide competition binding assay, A*02:01
Details: post-translationally modified insulin peptide; competition binding assay; a dash indicates IC50 >40,000 nM; read-out: A*02:01 binding (IC50 nM) Modified

| Compound | IC50 |
| --- | --- |
| CC(C)C[C@H](NC(=O)[C@H](Cc1c[nH]cn1)NC(=O)CC[C@H](N)C(=O)O)C(=O)N[C@@H](CS)C(=O)NCC(=O)N[C@@H](CO)C(=O)N[C@@H](Cc1c[nH]cn1)C(=O)N[C@@H](CC(C)C)C(=O)N[C@H](C(=O)N[C@@H](CCC(=O)O)C(=O)O)C(C)C [ZHLCGSHLVE] (γGlu-HLCGSHLVE-OH; N-terminus and C-terminus assumed) | > 40000 nM |
| CC(C)C[C@H](NC(=O)[C@H](Cc1c[nH]cn1)NC(=O)CC[C@H](N)C(=O)O)C(=O)N[C@@H](CS)C(=O)NCC(=O)N[C@@H](CO)C(=O)N[C@@H](Cc1c[nH]cn1)C(=O)N[C@@H](CC(C)C)C(=O)N[C@H](C(=O)O)C(C)C [ZHLCGSHLV] (γGlu-HLCGSHLV-OH; N-terminus and C-terminus assumed) | > 40000 nM |
| CGERGYFYTP | > 40000 nM |
| DEHLCGSHL | > 40000 nM |
| DEHLCGSHLV | > 40000 nM |
| EHLCGSHLVE | > 40000 nM |
| ERGYFYTPK | > 40000 nM |
| ERGYFYTPKT | > 40000 nM |

Same assay, conditions: post-translationally modified insulin-derived peptide; radiolabeled ligand competition, purified MHC, two-day incubation, three or more independent experiments; read-out: A*02:01 binding, Modified

| Compound | IC50 |
| --- | --- |
| CC(C)C[C@H](NC(=O)[C@@H](N)Cc1ccc(O)cc1)C(=O)N[C@H](C(=O)N[C@@H](CS(=O)(=O)O)C(=O)NCC(=O)N[C@@H](CCC(=O)O)C(=O)N[C@@H](CCCNC(=N)N)C(=O)NCC(=O)N[C@@H](Cc1ccc(O)cc1)C(=O)O)C(C)C [YLVBGERGY] (H-YLV[Cya]GERGY-OH) | 3240 nM |
| EHLCGSHLV | 7240 nM |

Same assay, conditions: read-out: A*02:01 binding (IC50 nM) Modified

| Compound | IC50 |
| --- | --- |
| CGERGYFYT | 26300 nM |

Same assay, conditions: read-out: A*02:01 binding (IC50 nM) WT

| Compound | IC50 |
| --- | --- |
| EALYLVCGE | 12000 nM |

Same assay, conditions: read-out: IC50 nM, target assay A*02:01

| Compound | IC50 |
| --- | --- |
| CC[C@H](C)[C@H](NC(=O)[C@H](CO)NC(=O)[C@@H](NC(=O)[C@H](CS)NC(=O)[C@H](CS)NC(=O)[C@H](CCC(N)=O)NC(=O)[C@H](CCC(=O)O)NC(=O)[C@@H](NC(=O)[C@@H](NC(=O)CN)[C@@H](C)CC)C(C)C)[C@@H](C)O)C(=O)O [reference compound] (H-GIVEQCCTSI-OH) | 7450 nM |
| CC[C@H](C)[C@H](NC(=O)[C@H](CC(N)=O)NC(=O)[C@H](C)NC(=O)[C@H](CC(C)C)NC(=O)[C@@H](N)CCCCN)C(=O)N[C@@H](CCC(N)=O)C(=O)N[C@@H](CS)C(=O)N[C@@H](CC(C)C)C(=O)N[C@@H](CS)C(=O)N[C@@H](CC(C)C)C(=O)O [reference compound] (H-KLANIQCLCL-OH) | 97 nM |
| CC[C@H](C)[C@H](NC(=O)[C@H](CC(N)=O)NC(=O)[C@H](C)NC(=O)[C@H](CC(C)C)NC(=O)[C@@H](N)CCCCN)C(=O)N[C@@H](CCC(N)=O)C(=O)N[C@@H](CS)C(=O)N1CCC[C@H]1C(=O)N[C@@H](CS)C(=O)N[C@@H](CC(C)C)C(=O)O [reference compound] (H-KLANIQCPCL-OH) | 121 nM |
| CC(C)C[C@H](NC(=O)[C@@H](N)CCCNC(=N)N)C(=O)N[C@@H](CCCNC(=N)N)C(=O)N1CCC[C@H]1C(=O)N[C@@H](CC(C)C)C(=O)N[C@@H](CS)C(=O)N[C@@H](CS)C(=O)N[C@H](C(=O)N[C@@H](C)C(=O)O)[C@@H](C)O [reference compound] (H-RLRPLCCTA-OH) | 8230 nM |
| CC(C)C[C@H](NC(=O)[C@@H](N)[C@@H](C)O)C(=O)N[C@@H](CO)C(=O)N[C@@H](CO)C(=O)N[C@@H](CCCNC(=N)N)C(=O)N[C@H](C(=O)N[C@@H](CS)C(=O)N[C@@H](CS)C(=O)N[C@@H](CCCNC(=N)N)C(=O)N[C@H](C(=O)O)[C@@H](C)O)C(C)C [reference compound] (H-TLSSRVCCRT-OH) | 2780 nM |
| ALARGAGTVPL [reference compound] | 29 nM |
| ALGDLFQSI [reference compound] | 76 nM |
| ALTAVAEEV [reference compound] | 1310 nM |
| ALWGPDPAAA [reference compound] | 1010 nM |
| AVAANIVLTV [reference compound] | 575 nM |
| ELAEYLYNI [reference compound] | 637 nM |

Same assay, conditions: unmodified (WT) insulin peptide; competition binding assay; a dash indicates IC50 >40,000 nM; read-out: A*02:01 binding (IC50 nM) WT

| Compound | IC50 |
| --- | --- |
| ALEGSLQKR | > 40000 nM |
| ALEGSLQKRG | > 40000 nM |
| CGERGFFYT | > 40000 nM |
| CGERGFFYTP | > 40000 nM |
| CGSHLVEAL [CGSHLVEAL] | > 40000 nM |
| EGSLQKRGI | > 40000 nM |
| EGSLQKRGIV | > 40000 nM |

Same assay, conditions: unmodified (wild type) insulin-derived peptide; radiolabeled ligand competition, purified MHC, two-day incubation, three or more independent experiments; read-out: A*02:01 binding, WT

| Compound | IC50 |
| --- | --- |
| CGSHLVEALY | 33700 nM |
| EALYLVCGER | 10100 nM |
